This note sets out measurements from patent US20170216297A1, “EFFICIENT INHIBITION OF HSP27” (TECHNISCHE UNIVERSITAET DRESDEN, priority 2014, published 2017).

SMILES strings stand for the structures.

The assay concerns U937 cells. The assay is described as follows: Development of resistance to bortezomib in U937 cells. It counts as cell-based. The procedure: For this purpose, U937 cells (histiocytic lymphoma) were cultured in DMEM culture medium (+10% FCS) at 37° C., 5% CO2 in an H2O-saturated atmosphere. 100,000 cells/ml were seeded and incubated with the cytostatic agent bortezomib (0.1 ng/ml) and the respective test substance (dosage in the current experiment: 1 μM/L acepromazine). The reference substance, BVDU, was employed at a concentration of 30 μM/L. The cells were in each case passaged before the cell count reached 1,000,000 cells/ml. At each passage, 100,000 cells/ml were again seeded and the dose of the cytostatic agent bortezomib was increased stepwise (0.1 ng/mL or 0.05 ng/mL). The concentration of the test substances remained constant. As a result of the stepwise increase in the dosage of the cytostatic agent, resistance developed in the U937 cells. The development of resistance is prevented or inhibited in the case of a positively tested HSP27 inhibitor. The experiments from Example 6 were repeated in the same way, wherein U937 cells (histiocytic lymphoma) are cultured in DMEM culture medium (+10% FCS) at 37° C., 5% CO2 in an H2O— saturated atmosphere. 100,000 cells/ml were seeded and incubated with an initial concentration of 0.2 ng/ml of the cytostatic agent bortezomib and both without an inhibitor and with acepromazine as an HSP27 inhibitor at a concentration of 1 μM/L. The reference substance, BVDU, was employed at a concentration of 30 μM/L. The cells were passaged in each case before the cell count reached 1,000,000 cells/ml. At each passage, 100,000 cells/ml were again seeded and the dose of the cytostatic agent bortezomib was increased stepwise by 0.1 ng/mL. The concentration of the test substance and the reference substance remained constant. As a result of the stepwise increase in the dosage of the cytostatic agent, resistance developed in the U937 cells. The development of resistance is prevented or inhibited in the case of a positively tested HSP27 inhibitor. The cell line U-937 is a histiocytic lymphoma (DSMZ ACC 5). This cell line also responds to treatment with bortezomib, expresses HSP27 and develops resistance to bortezomib. Bortezomib is not the standard therapy for this lymphoma, but is being discussed as a possible therapeutic agent. U-937 cells were seeded with a cell count of 100,000 cells/ml in each case and regularly passaged. […] At the end of the experiment, 70,000 living cells per ml medium could be detected. For the treatment with 30 μmol/L BVDU, a final cell count of 250,000 cells/ml was detected whereas the final cell count in the culture without the addition of an HSP27 inhibitor amounted to 450,000 cells/ml. As a control, U-937 cells were treated with the respective test substances alone, FIG. 10b.

`CC(=O)c1ccc2c(c1)N(CCCN(C)C)c1ccccc1S2` [Acepromazine]: the “living cells after the end of the experiment” value by setting is: (Example 6, FIG. 2: bortezomib 0.1 to 0.5 ng/ml stepwise, +1 μM inhibitor, without inhibitor 790,000 cells/ml) “no living cells were detectable”; (Example 7, FIG. 3: bortezomib 0.2 to 0.4 ng/ml stepwise, +1 μM inhibitor, without inhibitor 230,000 cells/ml) “no living cells were detectable”. In addition, the “development of resistance to bortezomib” value is listed as “no development of resistance occurred” (Example 6, FIG. 2: bortezomib 0.1 to 0.5 ng/ml, +1 μM inhibitor); “no development of resistance occurred” (Example 7, FIG. 3: bortezomib 0.2 to 0.4 ng/ml, +1 μM inhibitor); “significantly inhibited” (Examples 17/18: bortezomib 0.1-0.5 ng/ml, plus 0.75 μmol/L inhibitor).
